The test concerns HIV. Description: in vitro anti-HIV activity in cell culture. The class given is cell-based.

Consider `O=C(/C=C(\O)c1cc(Cc2c(F)cc(F)cc2F)cn(Cc2ccccc2F)c1=O)C(=O)N1CCN(c2cccc3ccccc23)CC1`, for which the “EC90 (concentration for 90% inhibition of virus replication)” value is “nM range”.
